Data taken from patent publication US20180271869A1, “TREATMENT OF ANXIETY DISORDERS AND AUTISM SPECTRUM DISORDERS” (Rugen Holdings (Cayman) Limited, priority 2014, published 2018).
Entries after “also recorded” stand apart in the source; their conditions may differ.

Key:
Sapap3 knock-out mice = assay: Novelty Phobia Test in Sapap3 knock-out mice; assay type: in vivo, mouse; conditions: for novelty phobia (number of touch bouts), dose dependence: single i.p. administration
Method: (§1) Animals. Shank3 knockout mice and Sapap3 knockout mice were purchased from Duke University. The animals were raised in a SPF environment according to AALAC guidelines. The breeding conditions and genotyping method were the same as described in J. M. Welch et al., Nature 2007; 448(7156):894-900, and in J. Peca et al., Nature 2011;472(7344):437-442. Homozygous knockout mice of 4 to 8 weeks of age were used in behavioral assays.
The test compounds were dissolved in a small volume of DMSO and diluted saline and administered intraperitoneally (i.p.) to 4 to 8 week old mice. […]
The behavioral testing apparatus was a rectangular black Plexiglas box, with no top or bottom (50 cm long, 26 cm wide and 15 cm tall). The chambers of the testing apparatus were cleaned and fresh paper chip bedding was added between tests. Behavioral tests were conducted between 10:00 am and 1:00 pm in dim light. Mice were brought to the experiment room in their home cages and administered intraperitoneally with drugs or vehicle in a volume of 10 ml/kg. […] After this habituation period, a novel object (e.g., a toy ball of 3 cm in diameter with spikes) was introduced to the center of the chamber for 5 min. For the entire 15 min that the mouse spent in the chamber, video was recorded and analyzed with AnyMaze software (purchased from Stoelting Co.). The total distance traveled during the entire 15 min and the bouts that the mice touched the novel object during the last 5 min were measured. Statistical significance between two groups was determined by t test. In all statistical measures, the criterion for significance was set at p<0.05.

human NR1/NR2B = target: T1, human NR1/NR2B (Homo sapiens, UniProt Q05586+Q13224); assay: NR2B antagonist activity, Fluo-4 calcium influx assay in HEK293 cells; assay type: cell-based; conditions: glutamate 100 μM and glycine 50 μM, Fluo-4 fluorescence, read-out: hNR2B IC50
T1 construct: expressed in transfected cells
T1 sequence (Q13224 27-1484, other chains not shown): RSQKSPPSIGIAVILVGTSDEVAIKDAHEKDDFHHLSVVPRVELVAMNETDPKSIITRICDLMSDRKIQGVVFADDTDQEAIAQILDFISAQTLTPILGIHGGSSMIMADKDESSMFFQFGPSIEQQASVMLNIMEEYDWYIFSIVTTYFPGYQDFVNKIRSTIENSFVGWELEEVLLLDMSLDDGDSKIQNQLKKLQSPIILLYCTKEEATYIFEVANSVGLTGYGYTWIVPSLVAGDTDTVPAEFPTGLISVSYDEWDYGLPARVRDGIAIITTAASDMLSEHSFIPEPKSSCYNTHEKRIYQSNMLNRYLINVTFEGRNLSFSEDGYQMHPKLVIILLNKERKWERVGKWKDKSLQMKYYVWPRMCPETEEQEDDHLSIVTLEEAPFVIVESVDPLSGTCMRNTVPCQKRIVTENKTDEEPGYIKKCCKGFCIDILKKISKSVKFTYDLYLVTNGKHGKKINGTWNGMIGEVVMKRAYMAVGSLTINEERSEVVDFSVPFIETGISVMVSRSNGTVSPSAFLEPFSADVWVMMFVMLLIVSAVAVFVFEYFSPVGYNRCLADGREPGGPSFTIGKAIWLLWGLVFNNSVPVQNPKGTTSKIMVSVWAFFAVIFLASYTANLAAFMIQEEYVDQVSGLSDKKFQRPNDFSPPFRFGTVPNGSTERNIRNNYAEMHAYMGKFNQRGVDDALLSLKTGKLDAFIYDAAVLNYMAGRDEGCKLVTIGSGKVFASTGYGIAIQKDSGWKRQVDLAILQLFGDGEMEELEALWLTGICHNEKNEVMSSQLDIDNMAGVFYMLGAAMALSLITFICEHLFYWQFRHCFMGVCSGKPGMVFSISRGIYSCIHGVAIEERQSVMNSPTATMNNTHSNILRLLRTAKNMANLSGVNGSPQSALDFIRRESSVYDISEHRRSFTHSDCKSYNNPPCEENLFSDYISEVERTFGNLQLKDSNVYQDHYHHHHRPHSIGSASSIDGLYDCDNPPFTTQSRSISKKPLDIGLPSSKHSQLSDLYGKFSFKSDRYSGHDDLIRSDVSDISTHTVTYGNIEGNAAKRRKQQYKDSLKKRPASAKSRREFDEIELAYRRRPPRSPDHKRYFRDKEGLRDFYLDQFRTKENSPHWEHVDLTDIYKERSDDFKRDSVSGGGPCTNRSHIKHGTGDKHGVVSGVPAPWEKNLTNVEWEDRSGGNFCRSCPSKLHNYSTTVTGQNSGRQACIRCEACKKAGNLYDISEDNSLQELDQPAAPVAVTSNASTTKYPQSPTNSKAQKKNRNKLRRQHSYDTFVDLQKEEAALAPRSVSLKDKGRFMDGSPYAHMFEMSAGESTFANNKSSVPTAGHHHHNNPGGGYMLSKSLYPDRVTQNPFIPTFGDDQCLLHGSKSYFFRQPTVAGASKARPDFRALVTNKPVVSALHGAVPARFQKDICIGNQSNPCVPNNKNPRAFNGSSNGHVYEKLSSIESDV
Method: (§2) HEK293 cell lines stably expressing cloned human NR1/NR2B and NR1/NR2A, respectively, were established according to standard previously described methods (Hansen et al., Comb. Chem High Throughput Screen. 11:304, 2008). Activation of the NR2A or NR2B subtype of NMDA receptor with glutamate as an agonist and glycine co-agonist on these cells results in calcium influx, which can be monitored with fluorescent indicator Fluo-4.
(§3) For experiments, the cells were seeded onto poly-D-lysine-coated 96-well black plates with clear bottom (Corning) at a density of ˜50,000 cells/well. After overnight culture, the growth medium was removed from the wells and the cells were incubated at 37° C. for 60 min in Hanks buffer containing 4 μM fluo-4-AM (Invitrogen) and 0.1% bovine serum albumin (BSA). After dye-loading, the cells were washed three times with Hanks buffer and incubated for 10 min at room temperature with various concentrations of test compounds prepared in Hanks buffer with 0.1% BSA. The cell plates were placed onto FDSS μCell fluorescence reader (Hamamatsu). After 20 sec reading of background fluorescence, agonist glutamate at final 100 μM and co-agonist glycine at final 50 μM were added to the cells to activate the receptor, and the resulting fluorescence changes were recorded and quantified.

human NR1/NR2A [1] = target: T2, human NR1/NR2A (Homo sapiens, UniProt Q05586+Q12879); assay: NR2A antagonist activity, Fluo-4 calcium influx assay in HEK293 cells; assay type: cell-based; conditions: glutamate 100 μM and glycine 50 μM, Fluo-4 fluorescence, read-out: hNR2A IC50
T2 construct: expressed in transfected cells
T2 sequence (Q12879 23-1464, other chains not shown): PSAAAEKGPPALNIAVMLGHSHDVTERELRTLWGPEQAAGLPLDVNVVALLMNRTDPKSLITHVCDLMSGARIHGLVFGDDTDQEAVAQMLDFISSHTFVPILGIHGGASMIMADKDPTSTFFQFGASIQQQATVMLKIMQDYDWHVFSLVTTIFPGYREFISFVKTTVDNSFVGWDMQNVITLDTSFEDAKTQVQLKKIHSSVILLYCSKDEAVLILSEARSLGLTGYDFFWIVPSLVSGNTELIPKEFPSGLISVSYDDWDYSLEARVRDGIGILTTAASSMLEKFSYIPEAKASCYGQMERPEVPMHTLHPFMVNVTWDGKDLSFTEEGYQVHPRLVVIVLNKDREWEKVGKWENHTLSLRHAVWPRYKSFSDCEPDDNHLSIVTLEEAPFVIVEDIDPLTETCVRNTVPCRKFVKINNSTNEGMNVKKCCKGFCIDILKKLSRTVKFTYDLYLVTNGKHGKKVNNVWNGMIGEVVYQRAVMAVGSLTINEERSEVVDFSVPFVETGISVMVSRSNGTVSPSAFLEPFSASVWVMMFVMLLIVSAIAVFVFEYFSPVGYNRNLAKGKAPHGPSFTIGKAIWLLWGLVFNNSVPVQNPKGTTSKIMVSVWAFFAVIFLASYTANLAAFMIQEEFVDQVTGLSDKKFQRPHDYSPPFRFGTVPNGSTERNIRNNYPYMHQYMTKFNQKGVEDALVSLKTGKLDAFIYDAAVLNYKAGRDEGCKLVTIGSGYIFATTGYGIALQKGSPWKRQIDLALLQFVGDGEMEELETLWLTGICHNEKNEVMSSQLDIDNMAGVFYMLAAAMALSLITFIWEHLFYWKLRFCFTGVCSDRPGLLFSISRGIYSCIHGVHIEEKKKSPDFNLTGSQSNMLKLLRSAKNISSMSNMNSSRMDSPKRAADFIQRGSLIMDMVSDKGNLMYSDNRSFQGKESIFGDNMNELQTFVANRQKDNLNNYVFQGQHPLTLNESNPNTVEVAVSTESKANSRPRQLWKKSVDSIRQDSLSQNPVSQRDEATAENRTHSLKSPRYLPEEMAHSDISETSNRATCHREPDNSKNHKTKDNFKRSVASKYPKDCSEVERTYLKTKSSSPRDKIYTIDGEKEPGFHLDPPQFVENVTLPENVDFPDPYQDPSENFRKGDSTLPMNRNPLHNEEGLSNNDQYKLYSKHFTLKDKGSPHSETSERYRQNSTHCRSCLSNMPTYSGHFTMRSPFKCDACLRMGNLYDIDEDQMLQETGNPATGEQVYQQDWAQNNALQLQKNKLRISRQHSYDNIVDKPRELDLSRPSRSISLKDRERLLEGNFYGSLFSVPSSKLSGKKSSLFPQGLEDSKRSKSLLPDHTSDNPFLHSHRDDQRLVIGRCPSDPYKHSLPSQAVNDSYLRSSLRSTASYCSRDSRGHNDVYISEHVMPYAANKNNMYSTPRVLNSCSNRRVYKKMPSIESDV
Description: as §2, with “Fluo-4. A cell based assay has been implemented to evaluate the effect of a compound on NR2A and NR2B receptors by measuring the fluorescent changes (Hansen et al., Comb. Chem High Throughput Screen. 11:304, 2008).” for “Fluo-4.”
as §3, with “HEK293 cells stably expressing NR2A or NR2B receptors were cultured at 37° C. in a humidified CO2 incubator in DMEM supplemented with 10% fetal bovine serum (FBS) (Hyclone), 10 μM MK801 (Sigma-Aldrich) and 50 μM AP-5 (Tocris). For” for “For”, “quantified. Based on the changes in fluorescence intensity, the pharmacological effect of test compounds were analyzed and the IC50 values derived from a non-linear least squares fitting of the concentration-dependent response to a standard logistic equation using Prism (Graphpad, Inc):” for “quantified.”
Amplitude=Max Amplitude/(1+(IC50/[antagonist])°).

Shank3 knock-out mice = assay: Novelty Phobia Test in Shank3 knock-out mice; assay type: in vivo, mouse; conditions: for novelty phobia (number of touch bouts): vs vehicle, p<0.05
Method: as §1
The test compounds were dissolved in a small volume of DMSO and diluted saline and administered intraperitoneally (i.p.) to 4 to 8 week old mice. About 30-60 minutes after dosing, the mice were subjected to a behavioral test as described below.
The behavioral testing apparatus was a rectangular black Plexiglas box, with no top or bottom (50 cm long, 26 cm wide and 15 cm tall). The chambers of the testing apparatus were cleaned and fresh paper chip bedding was added between tests. Behavioral tests were conducted between 10:00 am and 1:00 pm in dim light. Mice were brought to the experiment room in their home cages and administered intraperitoneally with drugs or vehicle in a volume of 10 ml/kg. About 30 to 60 min after drug administration, the mice were placed into the chamber and allowed to free play for 10 min. After this habituation period, a novel object (e.g., a toy ball of 3 cm in diameter with spikes) was introduced to the center of the chamber for 5 min. For the entire 15 min that the mouse spent in the chamber, video was recorded and analyzed with AnyMaze software (purchased from Stoelting Co.). The total distance traveled during the entire 15 min and the bouts that the mice touched the novel object during the last 5 min were measured. Statistical significance between two groups was determined by t test. In all statistical measures, the criterion for significance was set at p<0.05.

human NR1/NR2A [2] = target: T3, human NR1/NR2A (Homo sapiens, UniProt Q12879); conditions: from L. Mony et al., Br. J. Pharmacol. 2009; read-out: hNR2A IC50; cited from earlier work
T3 construct: expressed in transfected cells
T3 sequence (Q12879 23-1464, other chains not shown): as above

wild-type mice = assay: Elevated Plus Maze; assay type: in vivo, mouse; conditions: for time spent in the open arms: vs vehicle
Description: The Elevated Plus Maze, which detects anxiolytic activity, follows that described by S. L. Handley and S. Mithani Naunyn. Schmied. Arch. Pharmacol. 1984, 327, 1-5. Rodents avoid open spaces (the open arms of an elevated plus-maze). Anxiolytics increase exploratory activity in the open arms, as indicated by increased time spent on the open arms and/or by increased % open-arm entries. The maze consists of 4 arms of equal length and width (14×5 cm) arranged in the form of a plus sign (+). Two opposite arms are enclosed by 12 cm high walls (closed arms). The 2 other arms have no walls (open arms). The maze is raised approximately 60 cm above the floor. A mouse was placed in the center of the plus-maze and left to explore for 5 minutes. The number of entries into the open and closed arms and the time spent on the open arms were recorded. The percentage of open arm entries (open arm entries/total arm entries×100) was calculated. Ten mice were studied per group. The test was performed blind (test substances versus vehicle). Data with the test substances were analyzed by comparing treated groups (7 groups except for the reference substance) with vehicle control using one-way ANOVA followed by post-hoc Dunnett's tests. Data with the reference substance were analyzed using unpaired Student's t tests.

wild type mice = assay: Marble Burying Test; assay type: in vivo, mouse; conditions: for number of marbles buried: vs vehicle, p<0.001
Method: The Marble Burying Test was conducted as previously described by C. L. Broekkamp et al., Eur. J. Pharmacol. 1986, 126, 223-229. Mice exposed to novel object (marbles) will bury them in the sawdust floor covering. Anxiolytics decrease the number of marbles buried at non-sedative doses. Mice were individually placed in transparent plastic cages (33×21×18 cm) with 5 cm of sawdust on the floor 25 marbles grouped in the center of the cage. The cage was covered with an inverted plastic cage. Each test cage, together with the marbles, was impregnated with mouse odor before-hand by leaving 10 mice in the cage for 15 minutes. These mice then played no further role in the experiment. The number of marbles covered by sawdust (⅔ or more) was counted at the end of a 30-minute test. Twelve mice were studied per group. The test was performed blind (test substances versus vehicle). Clobazam (8 mg/kg i.p.), administered 40 minutes before the test, was used as reference substance. Data with the test substances were analyzed by comparing treated groups with vehicle control using Kruskall-Wallis test followed by Mann-Whitney U tests. Data with the reference substance were analyzed using Mann-Whitney U tests.

[3] = Mathur et al. 2008; cited from earlier work
[4] = single dose subcutaneous, highest dose tested; Iijima et al. 2010; cited from earlier work
[5] = each test dose, single i.p., vs vehicle
[6] = 5 mg/kg i.p. once/day for 6 days, tested 30-60 min after last dose
[7] = 8 mg/kg i.p. 30 minutes before testing

## Cc1ccc(COC(=O)N2CC[C@H](CNc3ncccn3)[C@H](F)C2)cc1 (racemic) [Compound C, (±)-cis-4-methylbenzyl 3-fluoro-4-[(pyrimidin-2-ylamino)methyl]piperidine-1-carboxylate]
Sapap3 knock-out mice; [5]
  novelty phobia (number of touch bouts): significantly improved
Sapap3 knock-out mice
  novelty phobia (number of touch bouts), dose dependence: dose-dependently improved novelty phobia

## Cc1ccc(COC(=O)N2CC[C@@H](CNc3ncccn3)[C@@H](F)C2)cc1 [(3R,4S)-4-methylbenzyl 3-fluoro-4-[(pyrimidin-2-ylamino)methyl]piperidine-1-carboxylate]
Human NR1/NR2B
  IC50: 0.018 µM
Human NR1/NR2A [1]
  IC50: > 10 µM

## C[C@@H]([C@@H](O)c1ccc(O)cc1)N1CCC(O)(c2ccccc2)CC1 [Compound A, (+)-(1S,2S)-1-(4-hydroxyphenyl)-2-(4-hydroxy-4-phenylpiperidino)-1-propanol, reference compound]
Shank3 knock-out mice; [6]
  novelty phobia (number of touch bouts): significantly improved novelty phobia
Human NR1/NR2A [2]
  IC50: ≥ 10 µM

## FC(F)(F)c1ccc(C(F)(F)CN2CCC(Nc3ncnc4[nH]ncc34)CC2)cc1 [Compound B, N-(1-(2,2-difluoro-2-(4-trifluoromethyl)phenyl-ethyl)piperidin-4-yl)-1H-pyrazolo[3,4-d]pyrimidin-4-amine]
Shank3 knock-out mice; [6]
  novelty phobia (number of touch bouts): significantly improved novelty phobia
Shank3 knock-out mice; 1 and 5 mg/kg single i.p.
  novelty phobia (number of touch bouts): significantly improved novelty phobia
Shank3 knock-out mice; single i.p. administration 30-60 min before testing
  novelty phobia (number of touch bouts), dose dependence: dose-dependently improved novelty phobia
Sapap3 knock-out mice; [5]
  novelty phobia (number of touch bouts): significantly improved
Sapap3 knock-out mice
  novelty phobia (number of touch bouts), dose dependence: dose-dependently improved novelty phobia
Human NR1/NR2A [1]
  IC50: > 10 µM

## Cc1ccc(COC(=O)N2CC[C@H](CNc3ncccn3)[C@H](F)C2)cc1 [Compound D, (−)-(3S,4R)-cis-4-methylbenzyl 3-fluoro-4-[(pyrimidin-2-ylamino)methyl]-piperidine-1-carboxylate]
Human NR1/NR2B
  IC50: 0.011 µM
Sapap3 knock-out mice; 1 mg/kg i.p. 20 minutes prior to testing
  novelty phobia (number of touch bouts): improved novelty phobia
Human NR1/NR2A [1]
  IC50: > 10 µM
wild-type mice; 3 and 10 mg/kg i.p. 20 minutes before the test, p<0.01/0.001
  time spent in the open arms: significantly different from that of vehicle
wild-type mice; single i.p. dose 20 minutes before the test
  time spent in the open arms, dose dependence: maximal efficacy approaching that of the benzodiazepine control compound clobazam; also recorded: dose-dependently increased the amount of time spent
Wild type mice; 1 mg/kg i.p. 20 minutes before the test
  number of marbles buried: significantly different from that of vehicle
Wild type mice; single i.p. dose 20 minutes before 30-minute test session
  number of marbles buried, dose dependence: dose-dependently reduced the number of marbles buried

## C[C@@H](CN1CCC(Cc2ccccc2)CC1)[C@@H](O)c1ccc(O)cc1 [Ro25-6981]
[3]
  activity in the elevated plus maze test: inactive
[4]
  effect in the marble burying test: modest efficacy

## CN1C(=O)CC(=O)N(c2ccccc2)c2cc(Cl)ccc21 [clobazam, reference compound]
wild-type mice; [7]
  time spent in the open arms: significantly different from that of vehicle
Wild type mice; [7]
  number of marbles buried: significantly different from that of vehicle
